The nature of experiment [1]: inhibitors of firefly luciferase expression or activity, dose response, H4 neuroglioma cells, luminescence (AID 1990). Type of experiment: functional, cell-based.
Experiment [2] can be described thus: Luminescence Cell-Based Dose Response HTS to Identify Inhibitors of 5'UTR Stem-Loop Driven Prion Protein mRNA Translation in H4 Neuroglioblastoma Cells. [Related pubchem assays: 1827 (Project Summary), 1813 (Primary HTS)]. It is filed as functional.
Experiment [3] is described as follows: inhibitors of SNCA 5'UTR-driven reporter translation, confirmation, H4 neuroglioma cells, luminescence (AID 1988). It is filed as functional, cell-based.
The nature of experiment [4]: Luminescence Cell-Based Dose Retest to Confirm Inhibitors of Cancer Stem Cells. [Related pubchem assays (depositor defined):AID2717, AID2721]. It is filed as functional. Conditions: Homo sapiens.
The target of experiment [5] is T1, Corticotropin-releasing factor receptor 2/Corticotropin-releasing factor-binding protein (Homo sapiens, UniProt P24387+Q13324).
T1 sequence (Q13324 whole entry): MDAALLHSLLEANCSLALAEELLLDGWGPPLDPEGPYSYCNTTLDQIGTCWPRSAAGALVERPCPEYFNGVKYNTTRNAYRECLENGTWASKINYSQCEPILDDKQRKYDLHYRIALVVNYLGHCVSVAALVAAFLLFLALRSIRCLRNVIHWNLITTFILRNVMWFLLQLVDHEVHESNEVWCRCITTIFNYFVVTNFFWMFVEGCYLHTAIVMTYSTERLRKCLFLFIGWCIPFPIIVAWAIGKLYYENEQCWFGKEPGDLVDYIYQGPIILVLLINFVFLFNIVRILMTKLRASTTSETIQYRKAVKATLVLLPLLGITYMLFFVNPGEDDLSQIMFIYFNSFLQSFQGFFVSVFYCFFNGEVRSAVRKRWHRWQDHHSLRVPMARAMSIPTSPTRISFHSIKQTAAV
T1 sequence (P24387 whole entry): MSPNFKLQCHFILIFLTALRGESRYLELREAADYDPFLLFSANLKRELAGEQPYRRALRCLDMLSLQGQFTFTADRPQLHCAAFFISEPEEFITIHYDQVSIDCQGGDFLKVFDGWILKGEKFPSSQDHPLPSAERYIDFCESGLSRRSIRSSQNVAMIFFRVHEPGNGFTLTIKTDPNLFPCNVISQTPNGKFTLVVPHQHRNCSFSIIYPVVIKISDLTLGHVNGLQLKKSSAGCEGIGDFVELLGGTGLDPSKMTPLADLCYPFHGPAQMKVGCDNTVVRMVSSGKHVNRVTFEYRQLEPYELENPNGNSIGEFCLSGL
Put plainly: activators of CRF receptor 2 with binding protein – uHTS hits, confirmation (AID 602473). Type of experiment: functional. Conditions: read-out: EC50_Mean.

In a further experiment the target is Paired box protein Pax-8 (Homo sapiens, UniProt Q06710). Put plainly: inhibitors of PAX8-driven TPO luciferase reporter, dose response, RMG-I cells, cherry-pick (AID 687027).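 Note: luciferase reporter driven by Pax8 target thyroperoxidase promoter measured by SteadyGlo luminescence.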 Type of experiment: functional, cell-based. On the technique in general: A reporter such as luciferase makes a cellular process visible.
Paired box protein Pax-8, sequence (Q06710 whole entry): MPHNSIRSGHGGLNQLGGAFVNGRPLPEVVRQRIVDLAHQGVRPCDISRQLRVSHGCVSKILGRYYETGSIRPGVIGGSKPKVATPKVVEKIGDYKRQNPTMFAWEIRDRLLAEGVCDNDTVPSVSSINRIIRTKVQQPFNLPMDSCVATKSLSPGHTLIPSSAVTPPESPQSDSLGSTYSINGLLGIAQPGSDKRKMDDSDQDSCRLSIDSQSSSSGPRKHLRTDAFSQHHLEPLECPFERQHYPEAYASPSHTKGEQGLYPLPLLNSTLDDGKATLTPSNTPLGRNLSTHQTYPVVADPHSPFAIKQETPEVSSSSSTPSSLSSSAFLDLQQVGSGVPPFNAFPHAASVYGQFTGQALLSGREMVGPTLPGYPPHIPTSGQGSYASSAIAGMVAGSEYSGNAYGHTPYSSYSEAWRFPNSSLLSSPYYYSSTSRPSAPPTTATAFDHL

Molecules are shown by their SMILES. The source made the active and inactive calls. Cut-off read from the data, not from the text of the source, for most assays here: actives have a measured EC50 and inactives only a lower limit.

One may read the AC50 as the midpoint of the concentration-response curve, whichever way the signal moves.

With `Cc1ccc(-c2nc(-c3cccnc3)sc2CC(=O)Nc2ccc(C)c(Cl)c2)cc1`, the EC50 in experiment [1] is > 120 µM (not active); in experiment [2], 0.3 µM (active); in experiment [3], > 120 µM (not active). Regarding `COc1ccc(Cc2nnc(NC(=O)c3ccc(OC)c(OC)c3)s2)cc1OC`, the EC50 in experiment [1], in experiment [2] and in experiment [3] was > 120 µM (not active) each time. On to `CCCCCNCC(=O)Nc1cccc(C(=O)Nc2cccc(C(F)(F)F)c2)c1`, for which the AC50 in experiment [4] was 9.98 µM (active). For the compound `O=C1/C(=C\c2cc(Br)cc(Br)c2O)SC(=S)N1Cc1ccccc1`, the AC50 in experiment [4] was 0.894 µM (active). Consider `Cc1ccccc1CS(=O)(=O)c1ccc(C(=O)N2CCOCC2)cc1[N+](=O)[O-]`, for which the EC50 in experiment [1], in experiment [2] and in experiment [3] was > 120 µM (not active) throughout. Regarding `COCCNc1nnnc2c1sc1nc(N3CCOCC3)c3c(c12)CC(C)(C)OC3`, the results for the EC50 in experiment [1], in experiment [2] and in experiment [3] were 15.8 µM (active), > 120 µM (not active) and > 120 µM (not active), respectively. As for `CC(C)(C)NC(=O)c1ccc2c(c1)C1C3CCC(C3)C1C(c1ccccc1)N2` (stereo not drawn), the EC50 in experiment [1], in experiment [2] and in experiment [3] was > 120 µM (not active) each time. Regarding `COc1ccc(C(=O)NC(=S)N2CCN(c3ccccc3OC)CC2)cc1OC`, the EC50 in experiment [1], in experiment [2] and in experiment [3] was > 120 µM (not active) throughout. Consider `Nc1nc2c3ccccc3nc(Cc3ccccc3)n2n1`, for which the figures for the EC50 in experiment [1], in experiment [2] and in experiment [3] were 29.4 µM (active), > 120 µM (not active) and 20.8 µM (active), respectively. In the same order, the values of `N#Cc1ccc(NCCc2ccccn2)c([N+](=O)[O-])c1` are 23.7 µM (active), > 120 µM (not active) and > 120 µM (not active). For the compound `Cc1cc(C)nc(NC(=O)/C=C/c2cccs2)c1`, the AC50 in experiment [4] is 6.68 µM (active). Same read-out and setting: to `O=[N+]([O-])c1cc(-c2cnc3ccccc3n2)ccc1Oc1ccc(Cl)cc1` belongs 0.628 µM (active). In the case of `Cc1ccc(-n2c(C)cc(C(=O)CN3C(=O)C(=O)N(C4CCCC4)C3=O)c2C)cc1`, the EC50 in experiment [5] was > 53 µM (inactive). As for `CCOC(=O)C(O)(c1ccc(NC(=S)NC(=O)c2ccc(Cl)cc2Cl)cc1)C(F)(F)F` (stereo not drawn), the EC50 in experiment [5] is 15.9 µM (active). Still for that read-out and setting: to `Cc1cc(NC(=O)CN2C(=O)NC(C)(c3ccc(OC(F)F)cc3)C2=O)no1` (stereo not drawn) belongs 14.4 µM (active). Take `Cc1onc(-c2c(Cl)cccc2Cl)c1C(=O)NNc1ccccc1`: in experiment [4], the AC50 was 1.44 µM (active).

As for `CCOC(=O)Nc1sc(C(=O)N(C)C)c(C)c1C(=O)OCC`, the values for the EC50 in experiment [1], in experiment [2] and in experiment [3] were 23.9 µM (active), > 120 µM (not active) and 76.5 µM (active), respectively. With `Cc1cc2c3c(ccc(C)c3n1)N=CN2c1ccccc1`, the EC50 was 12.3 µM (active) in experiment [1], 23.3 µM (active) in experiment [2] and 119 µM (active) in experiment [3].

Regarding `CCCNC(=O)c1onc(CSc2ccc(Cl)cc2)c1C(=O)NCCC(C)C`, the AC50 in experiment [4] is 1.93 µM (active).

Take `CCc1cccc(CC)c1N1C(=O)C2=C(SCCCS2)C1=O`: the EC50 in experiment [5] is 6.9 µM (active). As for `Cc1ccc(S(=O)(=O)Nc2ccc3c(c2)C(=O)N([C@@H](C)CO)C[C@@H](C)[C@@H](CN(C)Cc2ccc(Cl)c(Cl)c2)OCCCC[C@@H](C)O3)cc1`, the AC50 at Paired box protein Pax-8 is 9.18 µM (active). Same read-out and setting: as for `C[C@@H]1CCCCO[C@H](CN(C)C(=O)Nc2ccc(C(F)(F)F)cc2)[C@@H](C)CN([C@@H](C)CO)C(=O)c2cc(NC(=O)Nc3ccccc3)ccc2O1`, the figure is 1.89 µM (active); as for `C[C@@H]1CN([C@@H](C)CO)C(=O)Cc2cc(NC(=O)C3CC3)ccc2O[C@H]1CN(C)Cc1ccc(-c2ccccc2)cc1`, 18.9 µM (active).

These data come from ChEMBL document CHEMBL1201862, “PubChem BioAssay data set” (2004).
